Measurements from patent US20070275967A1, “Pyrazolinols” (BAYER CROPSCIENCE AKTIENGESELLSCHAFT, priority 2003, published 2007).

What was measured:
[1] = system: green peach aphid (Myzus persicae); experiment: Myzus test (spray treatment); assay type: in vivo; conditions: for activity (kill of aphids): Chinese cabbage disks infested by all stages of Myzus persicae, sprayed, result in words; for pest or weed control at 500 g/ha: active compound concentration 500 g/ha
Procedure: Myzus Test (Spray Treatment) [table] To produce a suitable preparation of active compound, 1 part by weight of active compound is mixed with the stated amounts of solvents and emulsifier, and the concentrate is diluted with emulsifier-containing water to the desired concentration. Disks of Chinese cabbage (Brassica pekinensis) which are infested by all stages of the green peach aphid (Myzus persicae) are sprayed with a preparation of active compound of the desired concentration. After the desired period of time, the activity in % is determined. 100% means that all aphids have been killed; 0% means that none of the aphids have been killed.

[2] = logP determination by HPLC on reversed-phase column (EEC Directive 79/831 Annex V.A8); assay type: physicochemical; conditions: reversed-phase C18 HPLC column; acidic range (pH 2.3), marked a); 0.1% aqueous phosphoric acid/acetonitrile gradient; reversed-phase C 18; 43° C.
Procedure: The logP values given in the table were determined in accordance with EEC Directive 79/831 Annex V.A8 by HPLC (High Performance Liquid Chromatography) on a reversed-phase column (C 18). Temperature: 43° C. (a) Mobile phases for the determination in the acidic range (pH 2.3): 0.1% aqueous phosphoric acid, acetonitrile; linear gradient from 10% acetonitrile to 90% acetonitrile—the corresponding measurement results in table 1 are marked a). (b) Mobile phases for the determination in the neutral range (pH 7.5): 0.01-molar aqueous phosphate buffer solution, acetonitrile; linear gradient from 10% acetonitrile to 90% acetonitrile—the corresponding measurement results in table 1 are marked b). Calibration was carried out using unbranched alkan-2-ones (having 3 to 16 carbon atoms) with known logP values (determination of the logP values by the retention times using linear interpolation between two successive alkanones).

[3] = system: greenhouse red spidermite (Tetranychus urticae); experiment: Tetranychus test (OP-resistant/spray treatment); assay type: in vivo; conditions: for pest or weed control at 100 g/ha / pest or weed control at 500 g/ha: Tetranychus urticae, 120 h, after 5 d, OP-resistant, spray treatment, read-out: Kill rate in % after 5 d; for pest or weed control at 100 g/ha: active compound concentration 100 g/ha; for activity (kill of spidermites): bean leaf disks infested by all stages of Tetranychus urticae (OP-resistant), sprayed, result in words; for pest or weed control at 500 g/ha: active compound concentration 500 g/ha
Procedure: Tetranychus Test (OP-Resistant/Spray Treatment)
To produce a suitable preparation of active compound, 1 part by weight of active compound is mixed with the stated amounts of solvents and emulsifier, and the concentrate is diluted with emulsifier-containing water to the desired concentration.
Disks of bean leaves (Phaseolus vulgaris) which are infested by all stages of the greenhouse red spidermite (Tetranychus urticae) are sprayed with a preparation of active compound of the desired concentration.
After the desired period of time, the activity in % is determined. 100% means that all spidermites have been killed; 0% means that none of the spidermites have been killed.

[4] = system: larvae of the mustard beetle (Phaedon cochleariae); experiment: Phaedon test (spray treatment); assay type: in vivo; conditions: for activity (kill of beetle larvae): Chinese cabbage disks sprayed, populated with Phaedon cochleariae larvae, result in words; for pest or weed control at 500 g/ha / pest or weed control at 100 g/ha: Phaedon cochleariae, 168 h, after 7 d, spray treatment, read-out: Kill rate in % after 7 d; for pest or weed control at 500 g/ha: active compound concentration 500 g/ha; for pest or weed control at 100 g/ha: active compound concentration 100 g/ha
Procedure: Phaedon Test (Spray Treatment) [table] To produce a suitable preparation of active compound, 1 part by weight of active compound is mixed with the stated amounts of solvents and emulsifier, and the concentrate is diluted with emulsifier-containing water to the desired concentration. Disks of Chinese cabbage (Brassica pekinensis) are sprayed with a preparation of active compound of the desired concentration and, once they have dried, populated with larvae of the mustard beetle (Phaedon cochleariae). After the desired period of time, the activity in % is determined. 100% means that all beetle larvae have been killed; 0% means that none of the beetle larvae have been killed.

[5] = system: caterpillars of the armyworm (Spodoptera frugiperda); experiment: Spodoptera frugiperda test (spray treatment); assay type: in vivo; conditions: for pest or weed control at 500 g/ha / pest or weed control at 100 g/ha: Spodoptera frugiperda, 168 h, after 7 d, spray treatment, read-out: Kill rate in % after 7 d; for pest or weed control at 500 g/ha: active compound concentration 500 g/ha; for activity (kill of caterpillars): corn leaf disks sprayed, populated with Spodoptera frugiperda caterpillars, result in words; for pest or weed control at 100 g/ha: active compound concentration 100 g/ha
Procedure: Spodoptera Frugiperda Test (Spray Treatment) [table] To produce a suitable preparation of active compound, 1 part by weight of active compound is mixed with, the stated amounts of solvents and emulsifier, and the concentrate is diluted with emulsifier-containing water to the desired concentration. Disks of corn leaves (Zea mays) are sprayed with a preparation of active compound of the desired concentration and, after they have dried, populated with caterpillars of the armyworm (Spodoptera frugiperda). After the desired period of time, the activity in % is determined. 100% means that all caterpillars have been killed; 0% means that none of the caterpillars have been killed.

Meloidogyne incognita = experiment: Meloidogyne test (nematicidal action by gall formation on lettuce roots); assay type: in vivo
Procedure: Meloidogyne Test [table] To produce a suitable preparation of active compound, 1 part by weight of active compound is mixed with the stated amounts of solvent and emulsifier, and the concentrate is diluted with water to the desired concentration. Containers are filled with sand, solution of active compound, Meloidogyne incognita egg/larvae suspension and lettuce seeds. The lettuce seeds germinate and the plants develop. On the roots, galls are formed. After the desired period of time, the nematicidal action is determined in % by the formation of galls. 100% means that no galls were found; 0% means that the number of galls on the treated plants corresponds to that of the untreated control.

[6] = Myzus persicae, 120 h, after 5 d, spray treatment, read-out: Kill rate in % after 5 d

SMILES | activity (kill of aphids) [1] | pest or weed control at 500 g/ha [1, 6] [%] | chromatographic logP [2] | pest or weed control at 100 g/ha [3] [%] | activity (kill of spidermites) [3] | activity (kill of beetle larvae) [4] | pest or weed control at 500 g/ha [4] [%] | pest or weed control at 500 g/ha [5] [%] | activity (kill of caterpillars) [5] | pest or weed control at 500 g/ha [3] [%] | pest or weed control at 100 g/ha ([1]; Myzus persicae, 120 h, active compound concentration 100 g/ha, after 5 d, spray treatment, read-out: Kill rate in % after 5 d) [%] | pest or weed control at 100 g/ha [4] [%] | pest or weed control at 100 g/ha [5] [%] | nematicidal action (formation of galls) (Meloidogyne incognita; Meloidogyne incognita egg/larvae suspension, lettuce, sand, result in words) | pest or weed control at 20 ppm (Meloidogyne incognita; Meloidogyne incognita, 336 h, active compound concentration 20 ppm, after 14 d, nematicidal action by gall formation, read-out: Effect in % after 14 d) [%]
CC(C)C1=NN(C(=S)Nc2ccccc2F)C(O)(C(F)(F)F)C1 (centres unmarked) [Example 1, N-(2-fluorophenyl)-5-hydroxy-3-(i-propyl)-5-trifluoromethyl-4,5-dihydro-1H-pyrazole-1-carbothioamide] | good activity | 100 | 3.86 | 90 | good activity | good activity | 100 | 100 | good activity | – | – | – | – | – | –
CCC1=NN(C(=O)Nc2ccc(OC(F)(F)F)cc2)C(O)(C(F)(F)F)C1 (centres unmarked) [Example 12] | good activity | 100 | 3.74 | – | – | – | – | – | – | – | – | – | – | – | –
CCC1=NN(C(=S)Nc2ccccc2Cl)C(O)(C(F)(F)F)C1 (centres unmarked) [Example 15] | good activity | 90 | 3.85 | – | – | – | – | – | – | – | – | – | – | – | –
CC(C)C1=NN(C(=S)Nc2ccccc2Cl)C(O)(C(F)(F)F)C1 (centres unmarked) [Example 20] | good activity | 100 | 4.28 | – | – | – | – | 100 | good activity | – | – | – | – | – | –
CC(C)CC1=NN(C(=S)Nc2ccccc2Cl)C(O)(C(F)(F)F)C1 (centres unmarked) [Example 24] | good activity | 90 | 4.6 | – | good activity | – | – | 100 | good activity | 90 | – | – | – | – | –
CC(C)C1=NN(C(=S)Nc2ccccc2)C(O)(C(F)(F)F)C1 (centres unmarked) [Example 27] | good activity | 100 | 3.9 | 90 | good activity | good activity | 100 | 100 | good activity | – | – | – | – | – | –
CC(C)C1=NN(C(=S)Nc2ccccc2[N+](=O)[O-])C(O)(C(F)(F)F)C1 (centres unmarked) [Example 31] | good activity | 100 | 4.04 | – | – | good activity | 100 | 100 | good activity | – | – | – | – | – | –
CC(C)C1=NN(C(=S)Nc2cc(Cl)ccc2Cl)C(O)(C(F)(F)F)C1 (centres unmarked) [Example 33] | good activity | 100 | 4.87 | – | – | good activity | 100 | – | – | – | – | – | – | – | –
CCC1=NN(C(=S)Nc2ccccc2F)C(O)(C(F)(F)F)C1 (centres unmarked) [Example 40] | good activity | 90 | 3.51 | – | – | – | – | – | – | – | – | – | – | – | –
CC(C)C1=NN(C(=S)NCc2ccccc2Cl)C(O)(C(F)(F)F)C1 (centres unmarked) [Example 42] | good activity | 100 | 4.58 | – | good activity | good activity | 100 | 100 | good activity | 100 | – | – | – | – | –
CC1=NN(C(=O)Nc2ccc(OC(F)(F)F)cc2)C(O)(C(F)(F)F)C1 (centres unmarked) [Example 46] | good activity | 90 | 3.35 | – | – | – | – | – | – | – | – | – | – | – | –
CCC1=NN(C(=S)NCc2ccccc2F)C(O)(C(F)(F)F)C1 (centres unmarked) [Example 55] | – | – | 3.88 | 90 | good activity | good activity | 100 | 100 | good activity | – | – | – | – | – | –
Cc1ccc(NC(=O)N2N=C(C(C)(C)C)CC2(O)C(F)(F)F)cc1 (centres unmarked) [Example 70] | good activity | – | 4.05 | – | – | – | – | – | – | – | 100 | – | – | – | –
CC(C)(C)C1=NN(C(=S)Nc2ccc(Cl)cc2)C(O)(C(F)(F)F)C1 (centres unmarked) [Example 74] | – | – | 4.75 | 100 | good activity | good activity | – | – | good activity | – | – | 100 | 100 | – | –
CC(C)(C)C1=NN(C(=S)NCc2ccc(Cl)cc2)C(O)(C(F)(F)F)C1 (centres unmarked) [Example 75] | – | – | 4.9 | 100 | good activity | good activity | – | – | good activity | – | – | 100 | 100 | – | –
CC1=NN(C(=S)Nc2ccc(Cl)cc2)C(O)(C(F)(F)F)C1 (centres unmarked) [Example 122] | – | – | – | – | – | – | – | – | – | – | – | – | – | good activity | 90
